In publication PMC10427817, “Bioactivities of β-mangostin and its new glycoside derivatives synthesized by enzymatic reactions” (Royal Society Open Science, 2023) one finds IC50, inhibitory potency ratio and MIC data, which are given here for one molecule.

Where only a bound is given, the exact number is not on record here.

The target of one experiment is AChE (Homo sapiens, UniProt P22303). The experiment in a line: Acetylcholinesterase inhibitory activity assay. Format: biochemical. The settings on record: AChE 0.25 IU ml^−1, ATCI/DTNB, mean ± s.d., three replicates. The method, then: For the assay, acetylthiocholine iodide (ATCI) was used as a substrate for the reaction and 5,5′-dithiobis-(2-nitrobenzoic acid) (DTNB) was used to measure AChE activity. The reaction (200 µl) on a 96-well plate was performed by mixing Tris–Cl buffer (pH 8.0), tested sample in a twofold serial dilution, AChE (0.25 IU ml^−1) and incubating at 25°C, 15 min before adding 2.4 mM DTNB and 2.4 mM ATCI.
Chain of AChE (P22303 32-614): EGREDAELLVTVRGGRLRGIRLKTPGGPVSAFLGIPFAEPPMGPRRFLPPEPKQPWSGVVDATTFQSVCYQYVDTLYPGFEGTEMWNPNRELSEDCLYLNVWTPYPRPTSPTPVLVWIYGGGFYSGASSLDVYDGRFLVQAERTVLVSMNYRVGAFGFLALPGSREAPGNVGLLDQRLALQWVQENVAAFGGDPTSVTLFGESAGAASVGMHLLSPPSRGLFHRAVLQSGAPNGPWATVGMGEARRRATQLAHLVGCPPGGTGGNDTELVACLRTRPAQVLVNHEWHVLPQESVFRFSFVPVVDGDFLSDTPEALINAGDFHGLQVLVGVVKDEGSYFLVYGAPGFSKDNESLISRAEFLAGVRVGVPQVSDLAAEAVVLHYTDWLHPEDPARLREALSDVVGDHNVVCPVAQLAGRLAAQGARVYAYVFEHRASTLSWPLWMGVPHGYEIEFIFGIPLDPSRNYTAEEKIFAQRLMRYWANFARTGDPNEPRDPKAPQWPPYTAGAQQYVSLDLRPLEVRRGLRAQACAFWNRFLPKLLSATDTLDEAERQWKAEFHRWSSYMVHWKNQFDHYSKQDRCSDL

In another experiment the target is T1, α-glucosidase (Saccharomyces cerevisiae, UniProt P53341).
T1 construct: purchased Sigma
T1 sequence (P53341 whole entry): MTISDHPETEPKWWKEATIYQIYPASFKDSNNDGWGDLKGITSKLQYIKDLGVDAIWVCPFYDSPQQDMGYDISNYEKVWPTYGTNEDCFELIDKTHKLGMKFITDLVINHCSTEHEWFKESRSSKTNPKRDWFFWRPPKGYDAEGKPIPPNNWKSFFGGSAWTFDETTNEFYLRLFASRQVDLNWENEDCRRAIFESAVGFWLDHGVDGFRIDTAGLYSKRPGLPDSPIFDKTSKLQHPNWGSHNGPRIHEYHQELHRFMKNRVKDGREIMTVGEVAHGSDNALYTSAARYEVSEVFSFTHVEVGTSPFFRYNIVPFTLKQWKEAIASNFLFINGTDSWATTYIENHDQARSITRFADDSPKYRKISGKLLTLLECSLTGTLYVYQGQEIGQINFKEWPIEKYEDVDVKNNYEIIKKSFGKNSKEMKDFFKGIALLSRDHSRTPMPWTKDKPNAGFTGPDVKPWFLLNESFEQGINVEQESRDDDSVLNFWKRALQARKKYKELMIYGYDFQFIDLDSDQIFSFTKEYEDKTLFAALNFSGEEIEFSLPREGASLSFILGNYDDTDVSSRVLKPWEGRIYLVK
The experiment in a line: Alpha-glucosidase inhibitory assay. Format: biochemical. As for the experimental part: Beta-mangostin and α-mangostin were purchased from Chengdu Biopurify Phytochemicals, Ltd. Recombinant Escherichia coli (BL21 (DE3)) strains were kindly provided by Prof. Jae Kyung Sohng, Sun Moon University, Korea. The cell lines and microorganisms were derived from the American Type Culture Collection (ATCC). α-Glucosidase (CAS no. 900-42-7, Sigma) was from Saccharomyces cerevisiae. All chemicals were of analytical grade and available.
The α-glucosidase inhibitory activity assay was conducted using a reaction mixture containing phosphate buffer (100 mM; pH 6.8), p-nitrophenyl-α-D-glucopyranoside (pNPG) (2.5 mM) and samples at various concentrations. The reactions were initiated by adding α-glucosidase (0.2 U ml^−1), incubated at 37°C for 30 min and quenched by adding Na2CO3 (50 mM). The absorbance of the reaction was determined using a BioTek instrument at a wavelength of 410 nm (A).

The test system of experiment [1] is S. aureus (MRSA; methicillin-resistant strain). More on the design: method as in PMID 22494050. Conditions: cited from earlier work.

A word on the IC50: it is the concentration that gives 50% inhibition. Low values mean greater potency, high ones weaker potency. By MIC is commonly meant the lowest concentration that inhibits growth of the organism.

Consider `COc1cc2oc3cc(O)c(OC)c(CC=C(C)C)c3c(=O)c2c(O)c1CC=C(C)C` [β-mangostin], for which the IC50 against AChE is 2.17 ± 0.18 µM; at α-glucosidase, 27.6 ± 4.6 µM. Also, at α-glucosidase (compared with the positive control acarbose), the inhibitory potency ratio is reported as 7.55. The MIC in experiment [1] is more than 200 µg/mL.
